From US10308644B2, “Heterocyclic compounds as immunomodulators” (Incyte Corporation, priority 2016, dated 2019)

molecular target: PD-1/PD-L1 (Homo sapiens (Human), UniProt Q9NZQ7); test: PD-1/PD-L1 Homogeneous Time-Resolved Fluorescence (HTRF) Binding Assay; settings: recombinant human PD-1 (3 nM) and PD-L1 (10 nM), 25° C., PBS pH 7.4
Method in brief: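 Fc-tagged human PD-1 (25-167, 3 nM) and His-tagged PD-L1 (19-238, 10 nM) preincubated with inhibitor 40 min in PBS pH 7.4, 0.05% Tween-20, 0.1% BSA, 1% DMSO, 25 °C. Binding detected by HTRF (Eu anti-IgG/APC anti-His, 665/620 nm) after 60 min; IC50 from percent control activity.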

Chain of PD-1/PD-L1 (Q9NZQ7 19-238): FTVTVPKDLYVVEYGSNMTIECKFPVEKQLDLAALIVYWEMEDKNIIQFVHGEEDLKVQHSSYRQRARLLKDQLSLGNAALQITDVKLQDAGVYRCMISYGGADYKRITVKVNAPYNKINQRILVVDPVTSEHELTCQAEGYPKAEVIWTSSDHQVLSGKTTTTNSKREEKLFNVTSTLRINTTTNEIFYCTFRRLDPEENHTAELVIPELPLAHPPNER

| SMILES | IC50 |
| --- | --- |
| Cc1c(-c2nc3cc(CN4CC[C@@H](C(=O)O)C4)cc(C#N)c3o2)cccc1-c1cccc(Nc2cncc3nccnc23)c1Cl [Example 15, (R)-1-((2-(2′-chloro-2-methyl-3′-(pyrido[3,4-b]pyrazin-8-ylamino)biphenyl-3-yl)-7-cyanobenzo[d]oxazol-5-yl)methyl)pyrrolidine-3-carboxylic acid] | ≤ 0.01 µM |
| Cc1c(Nc2nccc3cc(CNCCO)cnc23)cccc1-c1cccc(-c2nc3cc(CN4CCCC[C@H]4C(=O)O)cc(Cl)c3o2)c1C [Example 3, (S)-1-((7-chloro-2-(3′-((3-(((2-hydroxyethyl)amino)methyl)-1,7-naphthyridin-8-yl)amino)-2,2′-dimethyl-[1,1′-biphenyl]-3-yl)benzo[d]oxazol-5-yl)methyl)piperidine-2-carboxylic acid] | ≤ 0.01 µM |
| Cc1c(-c2nc3cc(CN4CC[C@@H](C(=O)O)C4)cc(C#N)c3o2)cccc1-c1cccc(-c2nc3c(s2)CN(C(=O)CN(C)C)C3)c1C [Example 105, (R)-1-((7-cyano-2-(3′-(5-(2-(dimethylamino)acetyl)-5,6-dihydro-4H-pyrrolo[3,4-d]thiazol-2-yl)-2,2′-dimethylbiphenyl-3-yl)benzo[d]oxazol-5-yl)methyl)pyrrolidine-3-carboxylic acid] | ≤ 0.01 µM |
| Cc1c(-c2nc3cc(CNCCO)cc(C#N)c3o2)cccc1-c1cccc(-c2nc3c(s2)CN(C(C)C)CC3)c1C [Example 120, 5-(((2-hydroxyethyl)amino)methyl)-2-(3′-(5-isopropyl-4,5,6,7-tetrahydrothiazolo[5,4-c]pyridin-2-yl)-2,2′-dimethyl-[1,1′-biphenyl]-3-yl)benzo[d]oxazole-7-carbonitrile] | ≤ 0.01 µM |

The remaining lines, values ahead:

| IC50 | SMILES |
| --- | --- |
| ≤ 0.01 µM | Cc1c(Nc2nccc3cc(CN4CCC4)cnc23)cccc1-c1cccc(-c2nc3cc(CN4CC[C@@H](C(=O)O)C4)cc(C#N)c3o2)c1C [Example 135, (R)-1-((2-(3′-(3-(azetidin-1-ylmethyl)-1,7-naphthyridin-8-ylamino)-2,2′-dimethylbiphenyl-3-yl)-7-cyanobenzo[d]oxazol-5-yl)methyl)pyrrolidine-3-carboxylic acid] |
| ≤ 0.01 µM | Cc1c(-c2nc3c(o2)CN(C(=O)CN2CCC(O)CC2)C3)cccc1-c1cccc(-c2nc3cc(CN4CC5CC4CC5C(=O)O)cc(C#N)c3o2)c1C (stereo not drawn) [Example 251, 2-((7-cyano-2-(3′-(5-(2-(4-hydroxypiperidin-1-yl)acetyl)-5,6-dihydro-4H-pyrrolo[3,4-d]oxazol-2-yl)-2,2′-dimethyl-[1,1′-biphenyl]-3-yl)benzo[d]oxazol-5-yl)methyl)-2-azabicyclo[2.2.1]heptane-5-carboxylic acid] |
| ≤ 0.01 µM | Cc1c(-c2nc3cc(CN4CCC(C(=O)O)CC4)cc(C#N)c3o2)cccc1-c1cccc(Nc2nccc3cc(CN4CC[C@@H](O)C4)cnc23)c1Cl [Example 188, (R)-1-((2-(2′-chloro-3′-(3-((3-hydroxypyrrolidin-1-yl)methyl)-1,7-naphthyridin-8-ylamino)-2-methylbiphenyl-3-yl)-7-cyanobenzo[d]oxazol-5-yl)methyl) piperidine-4-carboxylic acid] |
| ≤ 0.01 µM | CCN(C)CC(=O)N1Cc2nc(-c3cccc(-c4cccc(-c5nc6cc(CN7CC[C@@](C)(C(=O)O)C7)cc(C#N)c6o5)c4C)c3C)oc2C1 [Example 243, (R)-1-((7-cyano-2-(3′-(5-(N-ethyl-N-methylglycyl)-5,6-dihydro-4H-pyrrolo[3,4-d]oxazol-2-yl)-2,2′-dimethyl-[1,1′-biphenyl]-3-yl)benzo[d]oxazol-5-yl)methyl)-3-methylpyrrolidine-3-carboxylic acid] |
| ≤ 0.01 µM | CCN(C)CC(=O)N1Cc2nc(-c3cccc(-c4cccc(-c5nc6cc(CN7CC8(C(=O)O)CC7C8)cc(C#N)c6o5)c4C)c3C)oc2C1 [Example 242, 2-((7-cyano-2-(3′-(5-(N-ethyl-N-methylglycyl)-5,6-dihydro-4H-pyrrolo[3,4-d]oxazol-2-yl)-2,2′-dimethyl-[1,1′-biphenyl]-3-yl)benzo[d]oxazol-5-yl)methyl)-2-azabicyclo[2.1.1]hexane-4-carboxylic acid] |
